Assay results taken from patent US8541449B2, “Substituted isoquinolines and isoquinolinones as Rho kinase inhibitors” (Sanofi, priority 2008, dated 2013).

Tests used:
Type in all cases: biochemical
recombinant human PKA = target: T1, recombinant human PKA (Homo sapiens, UniProt P17612); assay: Determination of Protein Kinase A inhibition (Caliper peptide phosphorylation assay); conditions: recombinant human PKA versus ROCK II
T1 construct: Active recombinant human PKA (residues 1-351, N-terminal His-tag); His-tag (N); purchased Invitrogen, Karlsruhe, Germany
Experimental: (§1) Determination of Protein Kinase A and Protein Kinase G Inhibition
(§2) To measure PKA and PKG1-beta inhibition, IC50 values were determined according to the following protocol:
(§3) Active recombinant human PKG1-beta (full-length, with N-terminal His-tag) was purchased from Millipore GmbH, Schwalbach, Germany. Active recombinant human PKA (residues 1-351, N-terminal His-tag) was obtained from Invitrogen, Karlsruhe, Germany. The peptide substrate, Fluorescein-[…]-COOH, was obtained from JPT Peptide Technologies, Berlin, Germany. Adenosine-5′-triphosphate (ATP), bovine serum albumine (BSA), dimethylsulphoxide (DMSO), 4-(2-Hydroxyethyl)piperazine-1-ethanesulfonic acid (Hepes), Brij-35, dithiothreitol (DTT) and Pluronic F-68 were purchased from Sigma-Aldrich, Munich, Germany. Tris(hydroxymethyl)-aminomethane (Tris), magnesium chloride, NaOH, 1M HCl and EDTA were obtained from Merck Biosciences, Darmstadt, Germany. “Complete” protease inhibitor was from Roche Diagnostics, Mannheim, Germany.
(§4) Test compounds were diluted to the appropriate concentrations in buffer 1 (25 mM Tris-HCl, pH 7.4, 5 mM MgCl2, 2 mM DTT, 0.02% (w/v) BSA, 0.01% Pluronic F-68 and 3% DMSO). PKG1-beta and PKA were diluted to concentrations of 150 ng/ml and 30 ng/ml, respectively, in buffer 2. The peptide substrate and ATP were diluted to concentrations of 3 μM and 120 μM, respectively, in the buffer 2. Two μl of the compound solution were mixed with 2 μl of the diluted enzyme in a 384-well small volume microtiter plate (Greiner, Bio-One, Frickenhausen, Germany), and the kinase reaction was initiated by addition of 2 μl of the solution containing peptide substrate and ATP. After 60 min incubation at 32° C., the reaction was stopped by addition of 20 μl of a solution containing 100 mM Hepes-NaOH, pH 7.4, 0.015% (v/v) Brij-35, 45 mM EDTA and 0.227% chip coating reagent 1 (Caliper Lifescience Inc, Hopkinton, Mass.). Phosphorylation of the substrate peptide was then detected on a Caliper 3000 instrument essentially as described by Pommereau et al (J. Biomol. Screening 9(5), 409-416, 2004). Separation conditions were as follows: Pressure −1.3 psi, upstream voltage −1562 V, downstream voltage −500 V, sample sip time 200 ms. Positive controls (buffer 1 instead of compound) and negative controls (buffer 1 instead of compound and buffer 2 instead of kinase solution) were run in parallel on each plate. The following products/compounds were tested in said assay by using the respective form (salt or free base) obtained as in the examples described above and the following activities were measured.

[1] = target: T2, human recombinant ROCK II (Homo sapiens, UniProt O75116); assay: Determination of Rho kinase inhibition (Caliper peptide phosphorylation assay); conditions: 60 min at 32° C., negative decadal logarithm of the IC50
T2 construct: N-terminal His6-tagged recombinant human ROCK-II residues 11-552; His6 (N); purchased Millipore GmbH, Schwalbach, Germany
T2 sequence (O75116 11-552): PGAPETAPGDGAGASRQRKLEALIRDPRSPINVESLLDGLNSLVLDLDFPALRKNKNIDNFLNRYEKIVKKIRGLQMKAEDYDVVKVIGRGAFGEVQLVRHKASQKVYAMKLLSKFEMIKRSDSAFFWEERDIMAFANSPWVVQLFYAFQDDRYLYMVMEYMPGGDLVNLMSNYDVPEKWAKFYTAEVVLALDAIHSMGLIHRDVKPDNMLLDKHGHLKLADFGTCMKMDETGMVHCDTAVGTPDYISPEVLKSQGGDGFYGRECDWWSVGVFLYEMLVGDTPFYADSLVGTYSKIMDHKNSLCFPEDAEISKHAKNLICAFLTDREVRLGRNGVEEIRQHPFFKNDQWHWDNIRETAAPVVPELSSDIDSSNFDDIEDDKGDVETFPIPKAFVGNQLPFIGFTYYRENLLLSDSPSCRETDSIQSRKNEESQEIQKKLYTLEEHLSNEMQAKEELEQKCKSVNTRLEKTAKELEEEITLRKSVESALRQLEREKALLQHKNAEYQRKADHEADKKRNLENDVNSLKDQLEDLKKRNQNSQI
Method in brief: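 His6-tagged human ROCK II (residues 11-552) phosphorylated a fluorescein-labelled peptide for 60 min at 32° C in Tris-HCl pH 7.4 with MgCl2, DTT and BSA, using 3 μM peptide and 120 μM ATP as diluted stocks. EDTA-stopped; phosphopeptide separated and detected by Caliper mobility shift; IC50 determined.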

[2] = target: T3, recombinant human PKG1-beta (Homo sapiens, UniProt Q13976); assay: Determination of Protein Kinase G inhibition (Caliper peptide phosphorylation assay); conditions: recombinant human PKG1-beta versus ROCK II
T3 construct: Active recombinant human PKG1-beta (full-length, with N-terminal His-tag); His-tag (N); purchased Millipore GmbH, Schwalbach, Germany
T3 sequence (Q13976 1-686 isoform Q13976-2): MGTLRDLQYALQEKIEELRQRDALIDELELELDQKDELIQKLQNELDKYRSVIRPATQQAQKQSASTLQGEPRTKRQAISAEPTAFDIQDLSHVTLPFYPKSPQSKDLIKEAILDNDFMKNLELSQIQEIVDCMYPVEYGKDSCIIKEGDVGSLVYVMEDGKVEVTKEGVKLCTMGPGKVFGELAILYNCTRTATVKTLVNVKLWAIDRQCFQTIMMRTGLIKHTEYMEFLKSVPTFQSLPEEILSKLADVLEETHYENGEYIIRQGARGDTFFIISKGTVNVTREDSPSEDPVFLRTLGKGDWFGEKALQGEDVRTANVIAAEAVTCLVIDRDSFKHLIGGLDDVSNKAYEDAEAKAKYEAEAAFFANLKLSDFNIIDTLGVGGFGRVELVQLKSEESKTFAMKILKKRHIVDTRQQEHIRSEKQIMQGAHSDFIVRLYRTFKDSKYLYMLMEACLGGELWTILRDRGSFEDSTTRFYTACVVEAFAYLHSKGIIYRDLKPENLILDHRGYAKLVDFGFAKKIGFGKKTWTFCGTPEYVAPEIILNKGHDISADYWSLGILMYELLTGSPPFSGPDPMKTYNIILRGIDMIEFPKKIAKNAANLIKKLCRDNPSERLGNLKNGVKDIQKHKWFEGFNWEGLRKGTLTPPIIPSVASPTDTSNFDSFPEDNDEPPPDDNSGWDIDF
Experimental: as §1, §2, §3, §4

SMILES | Selectivity against PKA (recombinant human PKA) | pIC50 [1] | Selectivity against PKG [2] | IC50 [1]
CCOc1cccc([C@]2(C(N)CC)CC[C@@H](Oc3cc4cc[nH]c(=O)c4cc3Cl)CC2)c1 (stereo partly drawn) [Example 63, cis-6-[4-(1-Amino-propyl)-4-(3-ethoxy-phenyl)-cyclohexyloxy]-7-chloro-2H-isoquinolin-1-one] | >1000 | +++++++ (8.0≦pIC50) | >300 | –
CCC(N)(CC)C1CCC(Oc2cc3cc[nH]c(=O)c3cc2Cl)CC1 (single isomer, unassigned) [Example 122, 6-{-4-[1-Amino-1-ethyl-propyl]-cyclohexyloxy}-7-chloro-2H-isoquinolin-1-one] | >300 | – | >10 | 10 to 100 nM
CCC(N)[C@]1(c2ccc(C(C)C)cc2)CC[C@H](Oc2cc3cc[nH]c(=O)c3cc2Cl)CC1 (stereo partly drawn) [Example 27, cis-6-[4-(1-Amino-propyl)-4-(4-isopropyl-phenyl)-cyclohexyloxy]-7-chloro-2H-iso quinolin-1-one] | >100 | ++++++ (7.0≦pIC50<8.0) | >10 | –
CCC(N)[C@]1(c2ccccc2)CC[C@@H](Oc2cc3cc[nH]c(=O)c3cc2Cl)CC1 (stereo partly drawn) [Example 32] | >1000 | ++++++ (7.0≦pIC50<8.0) | >300 | –
CCC(N)[C@]1(c2ccc(Br)cc2)CC[C@H](Oc2cc3cc[nH]c(=O)c3cc2Cl)CC1 (stereo partly drawn) [Example 6, cis-6-[4-(1-Amin-propyl)-4-(4-bromo-phenyl)-cyclohexyloxy]-7-chloro-2H-isoquinolin-1-one] | >1000 | +++++++ (8.0≦pIC50) | >300 | –
CCC(N)[C@]1(c2cccc(Br)c2)CC[C@@H](Oc2cc3cc[nH]c(=O)c3cc2Cl)CC1 (stereo partly drawn) [Example 16, trans-6-[4-(1-Amino-propyl)-4-(3-bromo-phenyl)-cyclohexyloxy]-7-chloro-2H-iso quinolin-1-one] | >300 | ++++++ (7.0≦pIC50<8.0) | >100 | –
CC(C)(N)[C@]1(c2ccc(F)cc2)CC[C@@H](Oc2cc3cc[nH]c(=O)c3cc2Cl)CC1 [Example 22, trans-6-[4-(1-Amino-1-methyl-ethyl)-4-(4-fluoro-phenyl)-cyclohexyloxy]-7-chloro-2H-iso quinolin-1-one] | >300 | ++++++ (7.0≦pIC50<8.0) | >100 | –
CCC(N)C[C@]1(c2ccc(F)cc2)CC[C@H](Oc2cc3cc[nH]c(=O)c3cc2Cl)CC1 (stereo partly drawn) [Example 110, cis-6-[4-(2-Amino-butyl)-4-(4-fluoro-phenyl)-cyclohexyloxy]-7-chloro-2H-isoquinolin-1-one] | >300 | ++++++ (7.0≦pIC50<8.0) | >100 | –
CCC(N)[C@]1(c2cccc(OC)c2)CC[C@H](Oc2cc3cc[nH]c(=O)c3cc2Cl)CC1 (stereo partly drawn) [Example 28] | >1000 | +++++++ (8.0≦pIC50) | >1000 | –
NC(c1ccccc1)C1(c2ccccc2)CCC(Oc2cc3cc[nH]c(=O)c3cc2Cl)CC1 (single isomer, unassigned) [Example 41] | >10 | – | >10 | 100 to 1000 nM
CCC(N)[C@]1(c2ccccc2)CC[C@H](Oc2cc3cc[nH]c(=O)c3cc2F)CC1 (stereo partly drawn) [Example 87, cis-6-[4-(1-Amino-propyl)-4-phenyl-cyclohexyloxy]-7-fluoro-2H-iso quinolin-1-one] | >1000 | ++++++ (7.0≦pIC50<8.0) | >100 | –
CCC(N)[C@]1(c2cccc(OC)c2)CC[C@@H](Oc2cc3cc[nH]c(=O)c3cc2Cl)CC1 (stereo partly drawn) [Example 17, trans-6-[4-(1-Amino-propyl)-4-(3-methoxy-phenyl)-cyclohexyloxy]-7-chloro-2H-iso quinolin-1-one] | >300 | ++++++ (7.0≦pIC50<8.0) | >100 | –
CCC(N)[C@]1(c2ccccc2F)CC[C@H](Oc2cc3cc[nH]c(=O)c3cc2Cl)CC1 (stereo partly drawn) [Example 9, cis-6-[4-(1-Amino-propyl)-4-(2-fluoro-phenyl)-cyclohexyloxy]-7-chloro-2H-isoquinolin-1-one] | >1000 | +++++++ (8.0≦pIC50) | >100 | –

Continued, values first:

Selectivity against PKA (recombinant human PKA) | pIC50 [1] | Selectivity against PKG [2] | IC50 [1] | SMILES
>100 | +++++ (6.0≦pIC50<7.0) | >10 | – | CCC(N)[C@]1(c2cccc(C(F)(F)F)c2)CC[C@H](Oc2cc3cc[nH]c(=O)c3cc2Cl)CC1 (stereo partly drawn) [Example 83, cis-6-[4-(1-Amino-propyl)-4-(3-trifluoromethyl-phenyl)-cyclohexyloxy]-7-chloro-2H-isoquinolin-1-one]
>1000 | +++++++ (8.0≦pIC50) | >300 | – | CCC(N)[C@]1(c2ccc(C(F)(F)F)cc2)CC[C@H](Oc2cc3cc[nH]c(=O)c3cc2Cl)CC1 (stereo partly drawn) [Example 8, cis-6-[4-(1-Amino-propyl)-4-(4-trifluoromethyl-phenyl)-cyclo-hexyloxy]-7-chloro-2H-isoquinolin-1-one]
>1000 | +++++++ (8.0≦pIC50) | >300 | – | CCC(N)[C@]1(c2ccccc2Br)CC[C@H](Oc2cc3cc[nH]c(=O)c3cc2Cl)CC1 (stereo partly drawn) [Example 7, cis-6-[4-(1-Amino-propyl)-4-(2-bromo-phenyl)-cyclohexyloxy]-7-chloro-2H-isoquinolin-1-one]
>10 | +++++ (6.0≦pIC50<7.0) | >1 | – | CCC(N)[C@]1(c2ccccc2OC(F)(F)F)CC[C@H](Oc2cc3cc[nH]c(=O)c3cc2Cl)CC1 (stereo partly drawn) [Example 61, cis-6-[4-(1-Amino-propyl)-4-(2-trifluoromethoxy-phenyl)-cyclohexyloxy]-7-chloro-2H-iso quinolin-1-one]
>1000 | +++++++ (8.0≦pIC50) | >100 | – | CCC(N)[C@]1(c2ccccc2C)CC[C@H](Oc2cc3cc[nH]c(=O)c3cc2Cl)CC1 (stereo partly drawn) [Example 60, cis-6-[4-(1-Amino-propyl)-4-o-tolyl-cyclohexyloxy]-7-chloro-2H-isoquinolin-1-one]
>100 | +++++ (6.0≦pIC50<7.0) | >10 | – | CCC(N)[C@]1(c2cccc(OC(F)(F)F)c2)CC[C@H](Oc2cc3cc[nH]c(=O)c3cc2Cl)CC1 (stereo partly drawn) [Example 84, cis-6-[4-(1-Amino-propyl)-4-(3-trifluoromethoxy-phenyl)-cyclohexyloxy]-7-chloro-2H-iso quinolin-1-one]
